Data set [1] concerns chorioallantoic membrane (CAM). Nature of the data set: Chick chorioallantoic membrane (CAM) assay. In kind it is in vivo, chicken. The conditions noted are these: purified protein applied daily to sponge, scored over 72 h. The protocol:
Chick Chorioallantoic Membrane Assay-Fertilized chicken eggs (Sunrise Farms, Catskill, N.Y.) day 1-2 post-laying were incubated in a humidified incubator at 37° C. for 72 h. Cleaned eggs were cracked and plated in a sterile 10 cm^2 tissue culture-treated dish and incubated at 37° C. for another 7 days. On developmental day 10, 1 mm^3 sterile gelatin sponge pieces (Surgifoam®; Johnson & Johnson Wound Management, Somerville, N.J.) were placed within the outer one-third of the membrane between large vessels. 40 μg/ml human bFGF and 2 μg/mL human VEGF were used as pro-angiogenic control compounds; 100 μg/mL retinoic acid (Sigma-Aldrich, St. Louis, Mo.) diluted in phosphate-buffered saline (PBS) was used as an angiostatic control. All compounds were applied in 10 μl to the CAM every 24 h for 72 h. Images were taken using a Leica MZ6 stereomicroscope every 24 h. Compounds were scored according to a modified version of Intensity Scoring as previously described (Ribatti, Nico et al. 2006). Briefly, each experimental condition was given a blinded score from 0-5 based on the change in the extent of vessel convergence and formation in proximity to the sponge from day 0 to day 3. Total score is averaged individual experimental condition scores from at least 15 replicates.
Fertilized chicken embryos were cultured ex-ova and, starting at developmental day 10, agents were applied daily to gelfoam sponges on the CAM. Images were recorded daily over 72 h and scored blindly according to a modified version Intensity Scoring as previously described (Ribatti, Nico et al. 2006). Additional details regarding methods are provided in the Methods and Materials section of Example 1.

The next data set deals with T1, human LARS (Homo sapiens, UniProt Q9P2J5).
T1 construct: His6 (N); made in house; host or cells: E. coli, plasmid pPROEX hTb-LARS
T1 sequence (Q9P2J5 whole entry): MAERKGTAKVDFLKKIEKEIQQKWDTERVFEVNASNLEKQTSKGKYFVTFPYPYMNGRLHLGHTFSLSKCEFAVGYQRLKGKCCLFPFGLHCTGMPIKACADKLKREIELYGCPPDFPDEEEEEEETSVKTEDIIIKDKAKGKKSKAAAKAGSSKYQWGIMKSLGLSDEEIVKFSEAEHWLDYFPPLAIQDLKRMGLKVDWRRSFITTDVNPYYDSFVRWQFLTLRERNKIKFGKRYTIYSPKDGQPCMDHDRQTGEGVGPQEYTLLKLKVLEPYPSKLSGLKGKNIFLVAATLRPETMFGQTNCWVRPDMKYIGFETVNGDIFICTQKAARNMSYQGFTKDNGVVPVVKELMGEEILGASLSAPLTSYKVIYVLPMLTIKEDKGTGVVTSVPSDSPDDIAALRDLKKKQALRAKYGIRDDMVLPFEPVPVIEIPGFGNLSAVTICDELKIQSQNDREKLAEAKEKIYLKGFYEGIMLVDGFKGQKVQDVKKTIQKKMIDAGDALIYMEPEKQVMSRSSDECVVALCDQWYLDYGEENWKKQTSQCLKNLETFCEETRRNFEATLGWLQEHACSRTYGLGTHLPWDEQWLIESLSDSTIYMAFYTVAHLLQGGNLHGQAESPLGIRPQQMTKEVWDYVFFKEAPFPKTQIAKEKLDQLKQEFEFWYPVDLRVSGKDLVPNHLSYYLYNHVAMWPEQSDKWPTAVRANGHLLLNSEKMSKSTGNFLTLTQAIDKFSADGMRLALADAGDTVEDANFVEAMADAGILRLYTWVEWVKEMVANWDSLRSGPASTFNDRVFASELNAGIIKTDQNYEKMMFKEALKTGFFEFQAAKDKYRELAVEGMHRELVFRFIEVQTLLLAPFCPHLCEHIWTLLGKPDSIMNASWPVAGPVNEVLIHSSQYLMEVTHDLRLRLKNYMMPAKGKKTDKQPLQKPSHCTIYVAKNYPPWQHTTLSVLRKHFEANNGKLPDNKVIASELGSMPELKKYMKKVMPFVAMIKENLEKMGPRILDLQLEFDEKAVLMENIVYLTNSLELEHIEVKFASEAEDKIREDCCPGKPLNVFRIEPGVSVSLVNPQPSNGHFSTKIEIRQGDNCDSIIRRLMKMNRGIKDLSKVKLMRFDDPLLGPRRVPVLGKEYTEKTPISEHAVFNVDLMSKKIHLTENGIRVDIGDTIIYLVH
Nature of the data set: LARS steady state ATPase activity. In kind it is biochemical. The conditions noted are these: 1 μM human LARS. Here is the method:
LARS steady state ATPase activity was determined using the same procedure as for TARS aminoacylation with the following modifications. […] ATP (PerkinElmer, Waltham, Mass.) was added. Reactions were incubated for 3 minutes at 37° C. and initiated with the addition of 1 μM human LARS. At various time points 5 μl aliquots were quenched in 45 μl of 500 mM sodium acetate and 0.1% sodium dodecyl sulfate. For each sample, 1 μl was spotted onto a CCM cellulose PEI F plates (EMD) and resolved via thin-layer chromatography in 0.75 M potassium phosphate buffer mobile phase.

Entries after “also recorded” stand apart in the source; their conditions may differ.

Here are results for 1 substance from patent publication US11225653B2, “Methods and compounds for reducing threonyl-tRNA synthetase activity” (University of Vermont and State Agricultural College, priority 2012, dated 2022).

Consider “LARS: N-terminal His6-tagged human leucyl tRNA synthetase”, for which, in data set [1], the “vessel formation / vascularization on the CAM after applied protein” value is given as “no observable effect on vascularization; also recorded: has no effect on angiogenesis”. Moreover, in the data set with human LARS, the “enzyme activity as conversion of 32P-ATP to AMP” value is on record as “exhibits enzyme activity”.
